ChEMBL document CHEMBL3228000, “Absolute configuration of glycerol derivatives. 7. Enantiomers of 2-[[[2-(2,6-dimethoxyphenoxy)ethyl]amino]methyl]-1,4-benzodioxane (WB-4101), a potent competitive alpha-adrenergic antagonist” (J Med Chem, 1979)

Experiments:
[1] = Competitive antagonist at alpha-adrenergic receptor in New Zealand rabbit aorta assessed as methoxamine-induced contraction after 45 mins; type: tissue-based, Oryctolagus cuniculus
[2] = molecular target: Adrenergic receptor alpha; experiment: Antagonist at postsynaptic alpha-adrenergic receptor in rat vas deferens; type: tissue-based

Row | pA2 [2] | Compound | pA2 [1]
1 | – | COc1cccc(OC)c1OCCNC[C@@H]1COc2ccccc2O1.Cl | 7.35
2 | – | COc1cccc(OC)c1OCCNC[C@H]1COc2ccccc2O1.Cl | 9.02
3 | 9.8 | COc1cccc(OC)c1OCCNCC1COc2ccccc2O1 (racemic) | 8.83
